Assay results published in publication PMC4187893, “Biochemical and Antiparasitic Properties of Inhibitors of the Plasmodium falciparum Calcium-Dependent Protein Kinase PfCDPK1” (Antimicrobial Agents and Chemotherapy, 2014).
Like-named read-outs stand apart in the source and are kept apart here. One block for each compound: values may come before it.

Key:
PfCDPK1 [1] = molecular target: T1, PfCDPK1 (Plasmodium falciparum, UniProt P62344); details: absence of MTIP; for IC50: mean (SD), n = 2
PfCDPK1 [2] = molecular target: T1, PfCDPK1; assay: Kinase-Glo Plus ATP depletion assay; details: read-out: IC50 ATP depletion, ATP and MTIP at their respective Km values
PfCDPK1 [3] = molecular target: T1, PfCDPK1; assay: Radiometric assay, incorporation of 33P into MTIP; details: for IC50 ratio (ATP depletion/radiometric assay): Kinase-Glo Plus IC50 / radiometric IC50; for IC50: read-out: IC50 Radiometric assay, ATP and MTIP at their respective Km values
PbCDPK1 = PbCDPK1 (Plasmodium berghei, UniProt A0A509AHB6); assay: Rh-ParM ADP sensor IC50 assay, PbCDPK1; details: for IC50: read-out: IC50 PbCDPK1, Rh-ParM, absence of MTIP, mean (SD)
Sequence of PbCDPK1 (A0A509AHB6 whole entry): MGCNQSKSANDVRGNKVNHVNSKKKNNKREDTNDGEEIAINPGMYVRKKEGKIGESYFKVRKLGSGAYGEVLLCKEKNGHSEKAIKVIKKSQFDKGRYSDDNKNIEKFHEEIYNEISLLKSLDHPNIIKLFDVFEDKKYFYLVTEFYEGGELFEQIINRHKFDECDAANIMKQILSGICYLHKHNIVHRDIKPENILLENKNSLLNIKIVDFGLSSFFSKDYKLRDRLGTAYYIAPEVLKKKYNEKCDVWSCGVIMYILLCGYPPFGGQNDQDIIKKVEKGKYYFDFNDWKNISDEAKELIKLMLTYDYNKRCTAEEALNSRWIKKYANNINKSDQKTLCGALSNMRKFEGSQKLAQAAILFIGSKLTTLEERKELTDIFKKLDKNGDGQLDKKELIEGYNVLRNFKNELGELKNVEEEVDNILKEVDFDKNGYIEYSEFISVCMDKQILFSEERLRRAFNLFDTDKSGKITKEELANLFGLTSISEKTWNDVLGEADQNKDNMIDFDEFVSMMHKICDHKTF

PvCDPK1 = PvCDPK1 (Plasmodium vivax, UniProt A5KBU9); assay: Rh-ParM ADP sensor IC50 assay, PvCDPK1; details: for IC50: read-out: IC50 PvCDPK1, Rh-ParM, absence of MTIP, mean (SD)
Sequence of PvCDPK1 (A5KBU9 entry or part of it): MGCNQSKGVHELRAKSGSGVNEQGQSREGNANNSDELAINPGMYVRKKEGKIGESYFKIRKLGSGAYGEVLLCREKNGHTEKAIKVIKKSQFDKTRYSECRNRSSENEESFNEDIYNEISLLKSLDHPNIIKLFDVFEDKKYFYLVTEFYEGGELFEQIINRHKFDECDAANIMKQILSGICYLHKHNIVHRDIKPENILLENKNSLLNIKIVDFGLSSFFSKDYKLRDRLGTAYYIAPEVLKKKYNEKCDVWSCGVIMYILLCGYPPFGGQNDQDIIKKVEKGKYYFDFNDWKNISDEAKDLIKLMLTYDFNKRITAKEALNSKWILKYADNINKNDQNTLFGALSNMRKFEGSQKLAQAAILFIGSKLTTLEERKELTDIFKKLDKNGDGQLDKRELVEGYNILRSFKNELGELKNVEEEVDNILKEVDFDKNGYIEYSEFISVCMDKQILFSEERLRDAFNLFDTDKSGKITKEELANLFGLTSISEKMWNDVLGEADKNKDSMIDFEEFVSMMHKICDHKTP

PfCDPK1 T145Q = PfCDPK1 T145Q (Plasmodium falciparum, UniProt P62344, T145Q); assay: Rh-ParM ADP sensor assay, gatekeeper mutant T145Q; details: Ki, absence of MTIP
Sequence of PfCDPK1 T145Q (P62344 whole entry T145Q): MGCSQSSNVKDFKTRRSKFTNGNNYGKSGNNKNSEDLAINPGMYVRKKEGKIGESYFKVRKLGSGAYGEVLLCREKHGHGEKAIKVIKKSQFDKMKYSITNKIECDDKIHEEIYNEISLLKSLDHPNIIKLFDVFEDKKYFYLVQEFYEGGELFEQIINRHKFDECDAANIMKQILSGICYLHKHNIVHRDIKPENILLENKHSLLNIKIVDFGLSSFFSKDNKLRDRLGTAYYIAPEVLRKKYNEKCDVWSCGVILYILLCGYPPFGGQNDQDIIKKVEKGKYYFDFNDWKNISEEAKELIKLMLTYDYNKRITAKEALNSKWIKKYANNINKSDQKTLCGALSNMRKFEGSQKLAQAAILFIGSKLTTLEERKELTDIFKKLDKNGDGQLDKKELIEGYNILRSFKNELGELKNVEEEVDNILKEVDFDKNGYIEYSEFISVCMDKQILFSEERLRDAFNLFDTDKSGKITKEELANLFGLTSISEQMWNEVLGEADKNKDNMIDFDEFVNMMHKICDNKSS

[4] = design: method as in PMID 24689770; details: cited from earlier work
PfCDPK1 [5] = molecular target: T1, PfCDPK1; assay: Thermal shift assay; format: binding; design: 50 nM full-length recombinant PfCDPK1 and 8 μM MTIP in assay buffer 1; GST (from vector pGEX6P1) (N, cleaved yes); made in house; host or cells: Escherichia coli BL21 Gold; details: 10 μM compound, relative to DMSO controls
Experimental: Purified recombinant PfCDPK1 was diluted to 1 μM in 10 mM HEPES buffer (pH 7.5) containing 150 mM NaCl, 1 mM Ca^2+, and 1/1,000 SYPRO orange dye (Invitrogen). Test compounds were prediluted to 400 μM in 40% (vol/vol) DMSO in water, and 1 μl of diluted compound was added to 39 μl of enzyme/dye mix in white 96-well quantitative PCR plates (Thermo Scientific) to give a final compound concentration of 10 μM. Reference thermal melting temperatures (Tms) were obtained in parallel by the addition of 1 μl of 40% (vol/vol) DMSO to 39 μl of diluted PfCDPK1. The plates were sealed with transparent adhesive covers (Bio-Rad) and subjected to a temperature gradient from […] at a rate of 1 K/min using a quantitative PCR machine (MX3005P; Stratagene). Fluorescence data were acquired at 1-min intervals using the 6-carboxyfluorescein (FAM)/5-carboxy-X-rhodamine (ROX) filter set (λex = 492 nm; λem = 610 nm), and the raw data were exported to Excel (Microsoft) for analysis. Data were processed to identify the fluorescence maxima and minima, and the midpoints of melting curves were determined by fitting to the Boltzmann equation using XL-fit software (IDBS). Results were expressed as ΔTm values relative to DMSO controls where ΔTm = Tm in the presence of inhibitor − Tm of the DMSO controls.

[6] = P. berghei mouse model; cited from earlier work
P. falciparum 3D7 = assay: FACS assay for parasite growth; details: read-out: Parasite growth inhibition EC50; FACS; mean (SD), n = 3
[7] = read-out: IC50 With 30 μM ATP, 30 μM ATP, Rh-ParM ADP detection
[8] = read-out: IC50 With 1 mM ATP, 1 mM ATP, Rh-ParM ADP detection
[9] = read-out: IC50 PfCDPK1, Rh-ParM, ATP at Km

T1 sequence (P62344 whole entry): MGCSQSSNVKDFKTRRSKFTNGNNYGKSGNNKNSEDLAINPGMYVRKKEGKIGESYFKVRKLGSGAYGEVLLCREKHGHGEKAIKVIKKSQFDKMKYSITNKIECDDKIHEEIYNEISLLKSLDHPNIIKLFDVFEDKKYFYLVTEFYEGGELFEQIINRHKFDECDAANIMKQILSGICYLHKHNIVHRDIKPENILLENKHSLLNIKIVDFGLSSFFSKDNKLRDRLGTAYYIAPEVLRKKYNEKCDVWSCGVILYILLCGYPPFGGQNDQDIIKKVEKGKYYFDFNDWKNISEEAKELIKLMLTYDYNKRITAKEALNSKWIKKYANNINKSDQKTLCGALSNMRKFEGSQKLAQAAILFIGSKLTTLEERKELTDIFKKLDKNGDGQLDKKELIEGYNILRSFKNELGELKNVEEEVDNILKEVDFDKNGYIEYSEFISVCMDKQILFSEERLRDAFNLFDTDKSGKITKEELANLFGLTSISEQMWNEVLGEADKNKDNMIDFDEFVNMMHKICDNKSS

IC50 ratio (IC50 with 1 mM ATP/IC50 with 30 μM ATP) (PfCDPK1 [1]; Rh-ParM): 17 | IC50 (PfCDPK1 [1]; [7]): 0.212 µM | IC50 (PfCDPK1 [1]; [8]): 3.58 µM
Structure (SMILES): N#Cc1cccc(-c2cnn3ccc(NCCc4cccnc4)nc23)c1 [Compound 13]

IC50 ratio (IC50 with 1 mM ATP/IC50 with 30 μM ATP) (PfCDPK1 [1]; Rh-ParM): 336 | IC50 (PfCDPK1 [1]; [7]): 0.072 µM | IC50 (PfCDPK1 [1]; [8]): 24.2 µM
Structure (SMILES): CN(C(=O)c1cc(COc2ccc(-n3cncn3)cc2)on1)C1CCCCC1 [Compound 19]

Structure (SMILES): CC(=O)Nc1cccc(-c2cnc3ccc(NCCc4cccnc4)nn23)c1 [Compound 11]
IC50 ratio (IC50 with 1 mM ATP/IC50 with 30 μM ATP) (PfCDPK1 [1]; Rh-ParM): 28 | IC50 (PfCDPK1 [1]; [7]): 0.049 µM | IC50 (PfCDPK1 [1]; [8]): 1.38 µM | IC50 (PfCDPK1 [2]): 0.065 µM | IC50 ratio (ATP depletion/radiometric assay) (PfCDPK1 [3]): 3.0 | IC50 (PfCDPK1 [3]): 0.022 µM

IC50 ratio (IC50 with 1 mM ATP/IC50 with 30 μM ATP) (PfCDPK1 [1]; Rh-ParM): 41 | IC50 (PfCDPK1 [1]; [7]): 0.143 µM | IC50 (PfCDPK1 [1]; [8]): 5.93 µM
Structure (SMILES): Cc1c(C(=O)N(C)C2CCCCC2)noc1COc1ccc(-n2cncn2)cc1 [Compound 21]

Structure (SMILES): CC(C)CCNc1cc(-c2cnc3ccc(NC4CCN(C)CC4)nn23)ccn1 [Compound 27]
IC50 (PfCDPK1 [1]; [9]): 0.138 µM | IC50 ratio PbCDPK1/PfCDPK1 (PbCDPK1): 3.5 | IC50 (PbCDPK1; ATP at Km, n = 2): 0.479 µM | IC50 ratio PvCDPK1/PfCDPK1 (PvCDPK1): 0.5 | IC50 (PvCDPK1; ATP at Km, n = 2): 0.068 µM

IC50 ratio (IC50 with 1 mM ATP/IC50 with 30 μM ATP) (PfCDPK1 [1]; Rh-ParM): >3 | IC50 (PfCDPK1 [1]; [7]): 39.8 µM | IC50 (PfCDPK1 [1]; [8]): > 100 µM
Structure (SMILES): COc1ccc(NC(=O)CSc2nccn(-c3ccc(OC)cc3)c2=O)cc1 [Compound 23]

IC50 ratio (IC50 with 1 mM ATP/IC50 with 30 μM ATP) (PfCDPK1 [1]; Rh-ParM): >3 | IC50 (PfCDPK1 [1]; [7]): 34.2 µM | IC50 (PfCDPK1 [1]; [8]): > 100 µM
Structure (SMILES): CCc1ccccc1NC(=O)CSc1nccn(-c2ccc(OC)cc2)c1=O [Compound 22]

IC50 (PfCDPK1 [2]): 0.027 µM | IC50 ratio (ATP depletion/radiometric assay) (PfCDPK1 [3]): 3.9 | IC50 (PfCDPK1 [3]): 0.007 µM
Structure (SMILES): O=C(NCc1ccccc1)c1ccc(-c2cnc3ccc(NCCc4cccnc4)nn23)cc1 [Compound 47]

IC50 ratio (IC50 with 1 mM ATP/IC50 with 30 μM ATP) (PfCDPK1 [1]; Rh-ParM): 27 | IC50 (PfCDPK1 [1]; [7]): 0.051 µM | IC50 (PfCDPK1 [1]; [8]): 1.38 µM
Structure (SMILES): O=C(NCc1cccc(N2CCCC2)c1)c1ccc(-n2cnc3cccnc32)cc1 [Compound 17]

Structure (SMILES): CC(=O)Nc1cccc(-c2cnn3ccc(NCCc4cccnc4)nc23)c1 [Compound 14]
IC50 ratio (IC50 with 1 mM ATP/IC50 with 30 μM ATP) (PfCDPK1 [1]; Rh-ParM): 27 | IC50 (PfCDPK1 [1]; [7]): 0.028 µM | IC50 (PfCDPK1 [1]; [8]): 0.745 µM | IC50 (PfCDPK1 [2]): 0.052 µM | IC50 ratio (ATP depletion/radiometric assay) (PfCDPK1 [3]): 3.5 | IC50 (PfCDPK1 [3]): 0.015 µM

Structure (SMILES): CC(C)CCNc1ccc(-c2cnn3ccc(NC4CCN(C)C4)nc23)cn1 (stereo not shown) [Compound 41]
IC50 (PfCDPK1 [1]; [9]): 0.073 µM | IC50 ratio PbCDPK1/PfCDPK1 (PbCDPK1): 2.8 | IC50 (PbCDPK1; ATP at Km, n = 2): 0.206 µM | IC50 ratio PvCDPK1/PfCDPK1 (PvCDPK1): 0.9 | IC50 (PvCDPK1; ATP at Km, n = 2): 0.068 µM

IC50 ratio (IC50 with 1 mM ATP/IC50 with 30 μM ATP) (PfCDPK1 [1]; Rh-ParM): 44 | IC50 (PfCDPK1 [1]; [7]): 0.728 µM | IC50 (PfCDPK1 [1]; [8]): 31.7 µM
Structure (SMILES): CN(C(=O)c1cc(COc2ccc(-n3ccnc3)cc2)on1)C1CCCCC1 [Compound 20]

Structure (SMILES): CN[C@@H]1C[C@H]2O[C@@](C)([C@@H]1OC)n1c3ccccc3c3c4c(c5c6ccccc6n2c5c31)C(=O)NC4 [Staurosporine]
difference in potency between wild-type enzyme and T145Q (PfCDPK1 T145Q): no substantial differences

Structure (SMILES): CN1CCC(Nc2ccc3ncc(-c4ccc(Nc5ncc(Cl)cc5F)cc4)n3n2)CC1 [Compound 6]
mlogD [4]: 3.7 | IC50 (PbCDPK1; n = 3): < 0.01 µM | IC50 (PvCDPK1; n = 3): < 0.01 µM | ΔTm PfCDPK1 (PfCDPK1 [5]): 22 K

Structure (SMILES): NC1CCC(Nc2ccc3ncc(-c4cnc(Nc5ncccc5F)nc4)n3n2)CC1 (stereo not shown) [Compound 2]
mlogD [4]: 0.2 | plasma exposure [6]: poor plasma exposure | EC50 (P. falciparum 3D7): 0.013 µM

Structure (SMILES): CC(C)CCNc1ncc(-c2cnn3ccc(NC4CCN(C)C4)nc23)cn1 (stereo not shown) [Compound 42]
IC50 (PfCDPK1 [1]; [9]): 0.109 µM | IC50 ratio PbCDPK1/PfCDPK1 (PbCDPK1): 3.2 | IC50 (PbCDPK1; ATP at Km, n = 2): 0.35 µM | IC50 ratio PvCDPK1/PfCDPK1 (PvCDPK1): 0.9 | IC50 (PvCDPK1; ATP at Km, n = 2): 0.099 µM

Structure (SMILES): CN(C)C1CCN(c2ccc3ncc(-c4cnc(Nc5ncccc5F)nc4)n3n2)C1 (stereo not shown) [Compound 45]
IC50 (PfCDPK1 [1]; [9]): 0.019 µM | IC50 ratio PbCDPK1/PfCDPK1 (PbCDPK1): 3.0 | IC50 (PbCDPK1; ATP at Km, n = 2): 0.058 µM | IC50 ratio PvCDPK1/PfCDPK1 (PvCDPK1): 1.0 | IC50 (PvCDPK1; ATP at Km, n = 2): 0.019 µM
